We go through 31 compounds from US8765773B2, “Substituted hydroxamic acids and uses thereof” (Millennium Pharmaceuticals, Inc., priority 2010, dated 2014).

In this assay the target is T1, purified human HDAC6 (Homo sapiens, UniProt Q9UBN7).
T1 construct: purchased BPS Bioscience 5006
T1 sequence (Q9UBN7 1-1215): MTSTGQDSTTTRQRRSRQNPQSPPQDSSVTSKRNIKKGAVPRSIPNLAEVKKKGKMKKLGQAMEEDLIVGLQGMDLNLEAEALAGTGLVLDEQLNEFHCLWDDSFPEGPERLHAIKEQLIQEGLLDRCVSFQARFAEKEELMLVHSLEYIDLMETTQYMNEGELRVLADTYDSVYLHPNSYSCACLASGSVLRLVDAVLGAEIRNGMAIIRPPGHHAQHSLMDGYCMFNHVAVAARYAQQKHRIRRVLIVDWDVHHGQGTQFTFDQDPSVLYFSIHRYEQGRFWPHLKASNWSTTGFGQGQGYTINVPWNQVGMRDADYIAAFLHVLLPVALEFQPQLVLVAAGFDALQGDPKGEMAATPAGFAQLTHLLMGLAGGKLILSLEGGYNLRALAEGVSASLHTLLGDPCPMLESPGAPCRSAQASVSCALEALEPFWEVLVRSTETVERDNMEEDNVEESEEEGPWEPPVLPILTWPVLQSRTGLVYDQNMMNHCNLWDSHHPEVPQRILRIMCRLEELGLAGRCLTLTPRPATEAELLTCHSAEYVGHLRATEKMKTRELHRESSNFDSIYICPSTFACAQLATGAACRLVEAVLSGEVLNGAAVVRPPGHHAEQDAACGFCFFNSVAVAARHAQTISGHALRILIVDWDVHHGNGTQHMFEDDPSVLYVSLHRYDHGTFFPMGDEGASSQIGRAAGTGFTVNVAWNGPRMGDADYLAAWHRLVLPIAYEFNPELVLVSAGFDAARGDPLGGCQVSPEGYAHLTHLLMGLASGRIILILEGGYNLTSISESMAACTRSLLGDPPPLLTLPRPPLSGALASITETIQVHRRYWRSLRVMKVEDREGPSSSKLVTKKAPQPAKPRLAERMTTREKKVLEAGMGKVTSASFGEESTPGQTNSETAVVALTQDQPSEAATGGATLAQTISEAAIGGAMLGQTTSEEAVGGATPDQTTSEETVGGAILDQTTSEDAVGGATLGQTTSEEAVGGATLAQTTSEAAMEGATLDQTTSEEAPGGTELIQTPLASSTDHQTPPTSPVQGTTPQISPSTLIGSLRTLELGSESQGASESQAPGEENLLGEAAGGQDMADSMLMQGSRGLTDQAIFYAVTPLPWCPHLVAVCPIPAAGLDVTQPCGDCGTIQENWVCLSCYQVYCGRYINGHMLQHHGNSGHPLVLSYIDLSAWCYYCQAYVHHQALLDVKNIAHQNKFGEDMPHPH
Kind of assay: HDAC6 Enzyme Assay. The class given is biochemical. To be noted: read-out: Percent Inhibition; for inhibition at 0.412 µM: compound concentration 0.412 μM; for inhibition at 0.37 µM: compound concentration 0.37 μM. In a few lines: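 Readout is AMC fluorescence (Ex 340 nm, Em 460 nm) after trypsin cleavage of the deacetylated Ac-Arg-Gly-Lys(Ac)-AMC product. Reaction: purified human HDAC6, compound or vehicle, 1 hour, 30° C, quenched by trichostatin A. Single-concentration percent inhibition or IC50 calculated versus DMSO-treated samples.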

As to `O=C(NO)c1ccc2ccn(Cc3cc(F)ccc3F)c(=O)c2c1` [Compound I-198, 2-(2,5-difluorobenzyl)-N-hydroxy-1-oxo-1,2-dihydroisoquinoline-7-carboxamide], the inhibition at 0.412 µM was found to be 96.4%. On the same count and under the same terms, the same measure for `Nc1nc2cc(C(=O)NO)ccc2c(=O)[nH]1` [Compound I-199, 2-amino-N-hydroxy-4-oxo-3,4-dihydroquinazoline-7-carboxamide]: 42.4%. As for `CS(=O)(=O)Nc1cccc(Cn2cnc3ccc(C(=O)NO)cc3c2=O)c1` [Compound I-200, N-hydroxy-3-{3-[(methylsulfonyl)amino]benzyl}-4-oxo-3,4-dihydroquinazoline-6-carboxamide], the inhibition at 0.37 µM amounted to 93.3%. With `O=C(NO)c1ccc2ccn(C3c4ccccc4-c4ccccc43)c(=O)c2c1` [Compound I-201, 2-(9H-fluoren-9-yl)-N-hydroxy-1-oxo-1,2-dihydroisoquinoline-7-carboxamide], the inhibition at 0.412 µM worked out at 88.8%. For `COc1cc(Cn2ccc3ccc(C(=O)NO)cc3c2=O)cc(OC)c1` [Compound I-202, 2-(3,5-dimethoxybenzyl)-N-hydroxy-1-oxo-1,2-dihydroisoquinoline-7-carboxamide], the inhibition at 0.412 µM is 96.1%. Regarding `CCN(CC)c1nc2ccc(C(=O)NO)cc2c(=O)n1C` [Compound I-203, 2-(diethylamino)-N-hydroxy-3-methyl-4-oxo-3,4-dihydroquinazoline-6-carboxamide], the inhibition at 0.412 µM came out at 46.4%.

In the case of `O=C(NO)c1ccc2ccn(CCOc3ccccc3Cl)c(=O)c2c1` [Compound I-204, 2-[2-(2-chlorophenoxy)ethyl]-N-hydroxy-1-oxo-1,2-dihydroisoquinoline-7-carboxamide], the inhibition at 0.412 µM was 98.7%. On to `CC(C)(C)OC(=O)N1CCC(C(CCn2ccc3ccc(C(=O)NO)cc3c2=O)c2ccc(Cl)cc2)CC1` (stereo not shown) [Compound I-205, tert-butyl 4-{1-(4-chlorophenyl)-3-[7-[(hydroxyamino)carbonyl]-1-oxoisoquinolin-2(1H)-yl]propyl}piperidine-1-carboxylate], for which the inhibition at 0.37 µM came to 89.5%. As to `O=C(NO)c1ccc2ccn(Cc3cccc(Cl)c3)c(=O)c2c1` [Compound I-206, 2-(3-chlorobenzyl)-N-hydroxy-1-oxo-1,2-dihydroisoquinoline-7-carboxamide], the inhibition at 0.412 µM stood at 95.8%. As to `NCCn1ccc2ccc(C(=O)NO)cc2c1=O` [Compound I-207, 2-(2-aminoethyl)-N-hydroxy-1-oxo-1,2-dihydroisoquinoline-7-carboxamide], the inhibition at 0.412 µM came to 59.5%.

For the compound `CCN(CC)Cc1cccc(Cn2ccc3ccc(C(=O)NO)cc3c2=O)c1` [Compound I-208, 2-{3-[(diethylamino)methyl]benzyl}-N-hydroxy-1-oxo-1,2-dihydroisoquinoline-7-carboxamide], the inhibition at 0.412 µM is 89.9%.

As for `O=C(NO)c1ccc2c(=O)n(Cc3ccc(F)cc3)cnc2c1` [Compound I-209, 3-(4-fluorobenzyl)-N-hydroxy-4-oxo-3,4-dihydroquinazoline-7-carboxamide], the inhibition at 0.412 µM worked out at 95.9%.

As for `O=C(NO)c1ccc2c(=O)[nH]c(COc3ccc(-n4ccnc4)cc3)nc2c1` [Compound I-210, N-hydroxy-2-{[4-(1H-imidazol-1-yl)phenoxy]methyl}-4-oxo-3,4-dihydroquinazoline-7-carboxamide], the inhibition at 0.412 µM turned out to be 80.7%.

Take `O=C(NO)c1ccc2ccn(Cc3csc4ccc(Cl)cc34)c(=O)c2c1` [Compound I-211, 2-[(5-chloro-1-benzothien-3-yl)methyl]-N-hydroxy-1-oxo-1,2-dihydroisoquinoline-7-carboxamide]: the inhibition at 0.412 µM was found to be 92.3%.

Regarding `Cc1ccc(OCCn2ccc3ccc(C(=O)NO)cc3c2=O)cc1` [Compound I-212, N-hydroxy-2-[2-(4-methylphenoxy)ethyl]-1-oxo-1,2-dihydroisoquinoline-7-carboxamide], the inhibition at 0.412 µM was 96.9%. Still for that read-out and setting: the same measure for `O=C(NO)c1ccc2ccn(CCNS(=O)(=O)c3ccc(Cl)cc3)c(=O)c2c1` [Compound I-213, 2-(2-{[(4-chlorophenyl)sulfonyl]amino}ethyl)-N-hydroxy-1-oxo-1,2-dihydroisoquinoline-7-carboxamide]: 94%; for `CC(C)c1nc2cc(C(=O)NO)ccc2c(=O)[nH]1` [Compound I-214, N-hydroxy-2-isopropyl-4-oxo-3,4-dihydroquinazoline-7-carboxamide]: 65.8%. For `CC1(C(=O)Nc2cccc(Cn3ccc4ccc(C(=O)NO)cc4c3=O)c2)CCNCC1` [Compound I-215, N-hydroxy-2-(3-{[(4-methylpiperidin-4-yl)carbonyl]amino}benzyl)-1-oxo-1,2-dihydroisoquinoline-7-carboxamide], the inhibition at 0.37 µM turned out to be 100%.

As to `CS(=O)(=O)c1cccc(CCn2cnc3ccc(C(=O)NO)cc3c2=O)c1` [Compound I-216, N-hydroxy-3-{2-[3-(methylsulfonyl)phenyl]ethyl}-4-oxo-3,4-dihydroquinazoline-6-carboxamide], the inhibition at 0.37 µM came to 85.7%.

Regarding `O=C(NO)c1ccc2ccn(Cc3cc(C(F)(F)F)ccc3C(F)(F)F)c(=O)c2c1` [Compound I-217, 2-[2,5-bis(trifluoromethyl)benzyl]-N-hydroxy-1-oxo-1,2-dihydroisoquinoline-7-carboxamide], the inhibition at 0.412 µM is 99.4%. On the same count and under the same terms, to `CCOCCn1ccc2ccc(C(=O)NO)cc2c1=O` [Compound I-218, 2-(2-ethoxyethyl)-N-hydroxy-1-oxo-1,2-dihydroisoquinoline-7-carboxamide] belongs 90.4%. On the same count and under the same terms, to `O=C(NO)c1ccc2ccn(Cc3ccccc3)c(=O)c2c1` [Compound I-219, 2-benzyl-N-hydroxy-1-oxo-1,2-dihydroisoquinoline-7-carboxamide] belongs 94.1%. Regarding `O=C(NO)c1ccc2ncn(CCc3cccc(-c4ccncc4)c3)c(=O)c2c1` [Compound I-220, N-hydroxy-4-oxo-3-[2-(3-pyridin-4-ylphenyl)ethyl]-3,4-dihydroquinazoline-6-carboxamide], the inhibition at 0.37 µM came to 98.3%. Take `COc1ccc(-n2ccc3ccc(C(=O)NO)cc3c2=O)cc1` [Compound I-221, N-hydroxy-2-(4-methoxyphenyl)-1-oxo-1,2-dihydroisoquinoline-7-carboxamide]: the inhibition at 0.412 µM was determined as 88.1%. The same measure, in the same setting: to `O=C(NO)c1ccc2ccn(Cc3ccc(F)cc3F)c(=O)c2c1` [Compound I-222, 2-(2,4-difluorobenzyl)-N-hydroxy-1-oxo-1,2-dihydroisoquinoline-7-carboxamide] belongs 94.6%.

In the case of `O=C(NO)c1ccc2ccn(Cc3ccc(-n4cncn4)cc3)c(=O)c2c1` [Compound I-223, N-hydroxy-1-oxo-2-[4-(1H-1,2,4-triazol-1-yl)benzyl]-1,2-dihydroisoquinoline-7-carboxamide], the inhibition at 0.412 µM stood at 94.9%. Turning to `CC(c1ccccc1C(F)(F)F)n1ccc2ccc(C(=O)NO)cc2c1=O` (stereo not shown) [Compound I-224, N-hydroxy-1-oxo-2-{1-[2-(trifluoromethyl)phenyl]ethyl}-1,2-dihydroisoquinoline-7-carboxamide], the inhibition at 0.37 µM is 96.3%. In the case of `COc1ccc2ccc(OCc3nc4cc(C(=O)NO)ccc4c(=O)[nH]3)cc2c1` [Compound I-225, N-hydroxy-2-{[(7-methoxy-2-naphthyl)oxy]methyl}-4-oxo-3,4-dihydroquinazoline-7-carboxamide], the inhibition at 0.412 µM was found to be 40.3%. Same read-out and setting: the same measure for `CCOCCn1cnc2ccc(C(=O)NO)cc2c1=O` [Compound I-226, 3-(2-ethoxyethyl)-N-hydroxy-4-oxo-3,4-dihydroquinazoline-6-carboxamide]: 84.5%; for `O=C(NO)c1ccc2ccn(CCCOc3ccccc3Cl)c(=O)c2c1` [Compound I-227, 2-[3-(2-chlorophenoxy)propyl]-N-hydroxy-1-oxo-1,2-dihydroisoquinoline-7-carboxamide]: 93.7%; for `COCCOCCn1ccc2ccc(C(=O)NO)cc2c1=O` [Compound I-228, N-hydroxy-2-[2-(2-methoxyethoxy)ethyl]-1-oxo-1,2-dihydroisoquinoline-7-carboxamide]: 86.9%.
